Data set [1] deals with HCT-116 cells. The experiment in a line: Clonogenic assay, proliferating (P) versus quiescent (Q) cells. Type of data set: cell-based, human. Particulars: for P/Q selectivity: ratio derived from the IC90s on HCT116 cells; for IC90: Homo sapiens, HCT-116, P cells, 16 hr treatment. As for the experimental part: Tumor Cell Lines. […] Proliferating cultures were set up by plating 3×10^5 cells in 10 ml of RPMI medium in T75 flasks on day 0 and treated with compounds (dissolved in fresh medium) on day 2 or 3. Quiescent cultures were set up by plating 3×10^5 cells in 10 ml of RPMI media in T75 flasks on day 0, changing medium on day 2, and treated with drugs dissolved in spent media on day 6 for 17 hr.
Clonogenic Assay. […] After 10 days incubation at 37° C., colonies were stained with crystal violet.

Data set [2] deals with T1, Rab geranylgeranyl transferase (GGTII) (Homo sapiens, UniProt P53611+Q92696).
T1 sequence (Q92696 1-567): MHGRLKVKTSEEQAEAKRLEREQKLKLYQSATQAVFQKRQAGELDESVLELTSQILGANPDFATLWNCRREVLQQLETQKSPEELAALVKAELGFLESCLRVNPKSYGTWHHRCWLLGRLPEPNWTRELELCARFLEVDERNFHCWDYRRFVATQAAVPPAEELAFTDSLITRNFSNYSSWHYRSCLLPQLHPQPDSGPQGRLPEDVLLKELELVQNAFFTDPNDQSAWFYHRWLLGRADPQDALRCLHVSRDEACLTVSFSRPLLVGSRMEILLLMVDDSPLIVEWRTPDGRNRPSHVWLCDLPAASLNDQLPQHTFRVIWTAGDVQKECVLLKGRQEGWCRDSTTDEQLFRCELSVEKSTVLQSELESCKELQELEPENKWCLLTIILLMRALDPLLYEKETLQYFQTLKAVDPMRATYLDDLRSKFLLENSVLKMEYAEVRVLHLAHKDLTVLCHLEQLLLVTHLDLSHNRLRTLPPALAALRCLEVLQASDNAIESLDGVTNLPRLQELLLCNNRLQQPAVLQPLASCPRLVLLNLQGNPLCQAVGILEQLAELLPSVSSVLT
T1 sequence (P53611 1-331): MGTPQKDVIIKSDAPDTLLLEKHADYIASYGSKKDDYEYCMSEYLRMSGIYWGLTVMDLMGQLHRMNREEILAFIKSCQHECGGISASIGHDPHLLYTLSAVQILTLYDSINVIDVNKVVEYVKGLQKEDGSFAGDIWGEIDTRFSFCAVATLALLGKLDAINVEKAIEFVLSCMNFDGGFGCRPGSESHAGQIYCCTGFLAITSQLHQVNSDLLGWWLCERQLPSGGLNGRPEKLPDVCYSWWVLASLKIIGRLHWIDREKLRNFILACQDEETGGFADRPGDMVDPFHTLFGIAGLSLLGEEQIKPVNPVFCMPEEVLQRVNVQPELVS
The experiment in a line: Prenyltransferase enzyme assay, RabGGT. Type of data set: biochemical. The method, then:
(§1) Enzyme Assays. Prenyltransferases and H-Ras processing inhibition were carried out as described earlier (Hunt et al., Rose et al., Lackner et al., Manne et al., and Lombardo et al).

The target in another data set is FT (Homo sapiens, UniProt P49354+P49356). The experiment in a line: Prenyltransferase enzyme assay, FT. Type of data set: biochemical. The method, then: as §1
In the next data set the test system is HCT116 xenografts. The experiment in a line: HCT116 xenografts in nude mice. The data set is classed as in vivo. The conditions noted are these: at MTD: 600 mg/kg; for Activity in vivo, cures: cures per mice.
Data set [3] deals with geranylgeranyl transferase I (GGTI) (Homo sapiens, UniProt P49354+P53609). The experiment in a line: Prenyltransferase enzyme assay, GGTI. Type of data set: biochemical. As for the experimental part: as §1
For data set [4], the system named is HCT-116 cells. The experiment in a line: Flow cytometry of HCT-116 P and Q cells (BrdU, p85 PARP, activated caspase 3). The data set is classed as cell-based, human. (A flow cytometer gives signals particle by particle.)
Description: Untreated HCT-116 cells in P or in Q state (Panel a) were analyzed by flow cytometry. The y axis represents cell numbers and the x axis DNA content. […] The x axis indicates the level of activated caspase while the y axis represents percentage of total fluorescence adjusted to 100%. […] The x axis indicates the level of BrdU incorporation, while the y axis indicates the p85 cleaved PARP cells.
Data set [5] deals with cross-linker site in HCT-116 quiescent cell extracts. The experiment in a line: Cross-linking competition with tritium labeled azido analogue BMS-540864. Type of data set: binding, human.
The target in data set [6] is T2, Programmed cell death (AIF) (Homo sapiens, UniProt O95831).
T2 construct: Two peptides were detected for AIF in band B of the BMS-844472 eluates that were absent from the control eluates; endogenous in cells; host or cells: ALL cells (quiescent), nuclear and cytoplasmic fractions
T2 sequence (O95831 102-613): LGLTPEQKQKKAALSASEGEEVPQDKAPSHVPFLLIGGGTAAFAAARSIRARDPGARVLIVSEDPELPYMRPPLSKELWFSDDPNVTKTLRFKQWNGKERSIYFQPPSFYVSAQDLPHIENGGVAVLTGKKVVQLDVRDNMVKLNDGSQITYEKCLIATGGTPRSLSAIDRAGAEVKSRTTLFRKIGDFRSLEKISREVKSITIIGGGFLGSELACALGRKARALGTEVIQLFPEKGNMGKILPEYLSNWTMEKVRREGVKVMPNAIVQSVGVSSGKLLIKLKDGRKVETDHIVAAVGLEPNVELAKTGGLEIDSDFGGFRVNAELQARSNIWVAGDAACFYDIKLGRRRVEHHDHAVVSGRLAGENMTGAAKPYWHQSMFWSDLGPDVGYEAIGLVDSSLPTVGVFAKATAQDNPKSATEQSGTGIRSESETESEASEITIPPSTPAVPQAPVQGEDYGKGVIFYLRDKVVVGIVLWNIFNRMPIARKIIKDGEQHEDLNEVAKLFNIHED
The experiment in a line: Affinity capture on monomeric avidin, ALL cell fractions, MS peptide hits. Type of data set: binding. As for the experimental part:
(§2) An important first step was to establish a source of cells that grew to high density and could remain viable even without replenishing the medium, so that they would be quiescent (Q). After several trials, the inventors settled on ALL cells. Nuclear and cytoplamic fractions were separated by low speed centrifugation after cell lysis with mild detergent. The nuclear fractions were treated with 0.5 M KCl and the chromatin spun out at 100,000 g for one hour. The cytoplasmic fraction was also spun at 100,000 g for one hour, glycerol was added to 20% and fractions frozen at −80 C. […] The fractions were loaded onto 1 ml columns of monomeric avidin beads that had been pretreated with biotin to block accessible sites and washed with pH 2.8 glycine buffer and the incubation buffer (see FIG. 10). Proteins were eluted from both columns with buffer containing 2 mM biotin, 10% TCA precipitated and analyzed on polyacrylamide gels. Bands A and B from the 1 mm gel shown in FIG. 11 were excised out and submitted to the proteomics group for analysis.

A further data set concerns the target T3, Protein phosphatase 1G (Homo sapiens, UniProt O15355).
T3 construct: endogenous in cells; host or cells: ALL cells (quiescent), nuclear and cytoplasmic fractions
T3 sequence (O15355 1-546): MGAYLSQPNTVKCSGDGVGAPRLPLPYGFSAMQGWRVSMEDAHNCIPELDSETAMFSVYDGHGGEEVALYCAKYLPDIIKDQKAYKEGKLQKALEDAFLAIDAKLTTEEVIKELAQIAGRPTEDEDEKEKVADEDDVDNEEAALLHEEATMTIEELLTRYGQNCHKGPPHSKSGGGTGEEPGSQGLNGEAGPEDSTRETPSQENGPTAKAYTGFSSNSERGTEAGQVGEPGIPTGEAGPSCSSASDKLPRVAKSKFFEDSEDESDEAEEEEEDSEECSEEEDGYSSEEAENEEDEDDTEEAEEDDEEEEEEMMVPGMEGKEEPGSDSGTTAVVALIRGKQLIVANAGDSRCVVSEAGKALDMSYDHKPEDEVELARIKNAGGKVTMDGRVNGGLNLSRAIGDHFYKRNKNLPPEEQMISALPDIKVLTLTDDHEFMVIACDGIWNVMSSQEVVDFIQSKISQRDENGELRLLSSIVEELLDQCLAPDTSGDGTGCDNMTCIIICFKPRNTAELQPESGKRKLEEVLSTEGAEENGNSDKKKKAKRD
Described as above. Type of data set: binding. As for the experimental part: as §2

Data set [7] deals with T4, Stress induced-phosphoprotein 1 (Hsp70/Hsp90-organizing protein) (Homo sapiens, UniProt P31948).
T4 construct: endogenous in cells; host or cells: ALL cells (quiescent), nuclear and cytoplasmic fractions
T4 sequence (P31948 whole entry): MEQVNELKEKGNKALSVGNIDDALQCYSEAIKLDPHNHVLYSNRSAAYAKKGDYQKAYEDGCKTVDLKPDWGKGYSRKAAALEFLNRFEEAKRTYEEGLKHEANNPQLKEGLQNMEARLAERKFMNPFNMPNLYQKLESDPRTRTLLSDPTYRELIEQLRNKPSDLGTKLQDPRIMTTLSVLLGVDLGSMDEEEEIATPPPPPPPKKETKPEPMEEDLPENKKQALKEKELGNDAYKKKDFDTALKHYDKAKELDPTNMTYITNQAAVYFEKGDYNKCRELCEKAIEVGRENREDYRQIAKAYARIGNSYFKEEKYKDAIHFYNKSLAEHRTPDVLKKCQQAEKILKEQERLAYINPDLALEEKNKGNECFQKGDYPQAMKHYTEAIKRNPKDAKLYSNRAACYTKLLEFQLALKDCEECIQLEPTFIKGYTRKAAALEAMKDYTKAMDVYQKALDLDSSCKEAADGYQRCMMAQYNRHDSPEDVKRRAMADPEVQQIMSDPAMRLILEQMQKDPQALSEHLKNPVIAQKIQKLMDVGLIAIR
The data set is described as above. Type of data set: binding. As for the experimental part:
as §2

In a further data set the test system is HCT/VM46 xenograft. The experiment in a line: HCT/VM46 multidrug resistant colon carcinoma xenograft. Type of data set: in vivo, mice. The text has this: FIG. 5. […] Panel c. […] Therefore, the consistently observed synergy of the combinations is highly sequence dependent, in vitro and in vivo.

`O=c1[nH]cc(F)c(=O)[nH]1` [5-fluorouracil]: the “preferential cytotoxicity P versus Q” value in the data set with HCT-116 cells [1] is reported as “preferentially cytotoxic to P tumor cells”.

As a reminder, the IC50 is the concentration that gives 50% inhibition. The low end stands for greater potency in that assay, the high end for weaker potency in that assay. As for `N#Cc1ccc2c(c1)CN(S(=O)(=O)c1ccccc1)[C@H](Cc1ccccc1)CN2Cc1cnc[nH]1` [BMS-212347], the IC50 came out at 41 nM in [2], 2.4 nM against FT and 1200 nM in data set [3]. The P/Q selectivity in the data set with HCT-116 cells [1] is on record as 47. For the same compound, the “Activity in vivo, cures” value in the data set with HCT116 xenografts is 7/8.

Regarding `Cn1cncc1CN1C[C@@H](Cc2ccccc2)N(S(=O)(=O)c2ccccc2)Cc2cc(C#N)ccc21` [BMS-223999], the IC50 was 8 nM in data set [2], 1.1 nM against FT and 530 nM in [3]. In addition, the “Activity in vivo, LCK (log cell kill) when no cures were achieved” value in the data set on HCT116 xenografts is 0.4 LCK. Further, the “Activity in vivo, cures” value in the data set on HCT116 xenografts was 0/8.

In the case of `Cn1cncc1CN1C[C@@H](Cc2ccccc2)N(S(=O)(=O)c2cccs2)Cc2cc(C#N)ccc21` [BMS-225975], the concentration for half-maximal inhibition (IC50) in data set [2] was found to be 12 nM. For the same compound, in the data set on HCT-116 cells [4], the proapoptotic activity entry is given as “does not induce apoptosis”. Further, in the data set on HCT-116 cells [1], the P/Q activity ratio was determined as 0.7 and the P/Q selectivity is on record as 11-100 1.4. In addition, in [5], the “competition for the cross-linker site” value is on record as “able to compete”. Also, in the data set with HCT116 xenografts, the “Activity in vivo, LCK (log cell kill) when no cures were achieved” value was 0.3 LCK and the “Activity in vivo, cures” value is on record as 0/8. The same compound had an IC50 in [3] of 900 nM.

`N#Cc1ccc2c(c1)CN(S(=O)(=O)CCCNC(=O)CCCCCNC(=O)CCCC[C@H]1SC[C@H]3NC(=O)N[C@H]31)CCN2Cc1cnc[nH]1` [BMS-236724]: the “Peptide Hits Exp 1” value in [6] is 3; on Protein phosphatase 1G, 4; in data set [7] it was 15. Besides, the “Peptide Hits Exp 2” value in data set [6] turned out to be 5; at Protein phosphatase 1G, 1; in data set [7] it was 18.

Take `Cn1cncc1[C@@](N)(c1ccc(Cl)cc1)c1ccc2c(c1)c(-c1cccc(Cl)c1)cc(=O)n2C` [R-115777]: the P/Q activity ratio in the data set with HCT-116 cells [1] stood at 0.83.

For the compound `NC(=O)N1CCC(CC(=O)N2CCC([C@H]3c4ncc(Br)cc4CCc4cc(Cl)cc(Br)c43)CC2)CC1` [SCH66336], the P/Q activity ratio in the data set with HCT-116 cells [1] is 0.74.

For orientation: IC90 means the concentration needed for an effect of 90%. Turning to `C/C(=C\c1csc(C)n1)[C@@H]1C[C@@H]2O[C@]2(C)CCC[C@H](C)[C@H](O)[C@@H](C)C(=O)C(C)(C)[C@@H](O)CC(=O)N1` [ixabepilone], in the data set on HCT/VM46 xenograft (cured mice of group), the tumor cures entry is listed as “did not produce any tumor cures”. Further, in the data set with HCT/VM46 xenograft (mouse, in vivo), the tumor growth delay was 1.1 LCK. Further, it took 1.3 nM to reach the 90% level in the data set with HCT-116 cells [1] (IC90). In addition, in the data set with HCT-116 cells [1] (P cells more sensitive), the “relative sensitivity of P versus Q cells” value is listed as over 83 fold.

In the data set on HCT-116 cells [1], `CC(=O)O[C@H]1C(=O)[C@@]2(C)[C@H]([C@H](OC(=O)c3ccccc3)[C@]3(O)C[C@H](OC(=O)[C@H](O)[C@@H](NC(=O)c4ccccc4)c4ccccc4)C(C)=C1C3(C)C)[C@]1(OC(C)=O)CO[C@@H]1C[C@@H]2O` [paclitaxel] gave an IC90 of 17.8 nM. For the same compound, in the data set on HCT-116 cells [1] (Q cells), the “Q cell values (IC90)” value is “not reached”.

The values above are taken from patent publication US20100233172A1, “METHODS OF INHIBITING QUIESCENT TUMOR PROLIFERATION” (Bristol-Myers Squibb Company, priority 2008, published 2010).
